Where two headings read alike, the source gives them in different places.
Key:
human 5-HT1A receptors = biological target: T1, human 5-HT1A receptors (Homo sapiens, UniProt P08908); experiment: Inhibition of 3H-5-CT binding to human 5-HT1A receptors
T1 construct: expressed in transfected cells; cell homogenate
T1 sequence (P08908 1-422): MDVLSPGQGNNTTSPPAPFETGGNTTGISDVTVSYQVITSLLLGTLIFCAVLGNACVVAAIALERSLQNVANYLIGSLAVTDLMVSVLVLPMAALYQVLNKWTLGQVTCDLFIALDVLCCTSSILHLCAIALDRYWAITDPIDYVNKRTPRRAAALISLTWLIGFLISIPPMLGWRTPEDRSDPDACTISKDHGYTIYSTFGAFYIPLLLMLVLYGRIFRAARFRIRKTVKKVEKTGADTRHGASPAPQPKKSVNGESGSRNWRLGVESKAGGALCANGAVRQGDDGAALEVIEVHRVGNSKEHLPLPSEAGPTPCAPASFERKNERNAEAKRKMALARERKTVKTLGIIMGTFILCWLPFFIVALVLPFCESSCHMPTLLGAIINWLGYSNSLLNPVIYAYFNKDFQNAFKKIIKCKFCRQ
Procedure: The affinity of the compounds of the invention to 5-HT1A receptors was determined by measuring the inhibition of binding of a radioactive ligand at 5-HT1A receptors as described in the following test:
Inhibition of ^3H-5-CT Binding to Human 5-HT1A Receptors.
By this method the inhibition by drugs of the binding of the 5-HT1A agonist ^3H-5-carboxamido tryptamine (^3H-5-CT) to cloned human 5-HT1A receptors stably expressed in transfected HeLa cells (HA7) (Fargin, A. et al. J. Biol. Chem. 1989, 264, 14848) is determined in vitro. The assay was performed as a modification of the method described by Harrington, M. A. et al. J. Pharmacol. Exp. Ther. 1994, 268, 1098. Human 5-HT1A receptors (40 μg of cell homogenate) were incubated for 15 minutes at 37° C. in 50 mM Tris buffer at pH 7.7 in the presence of ^3H-5-CT. Non-specific binding was determined by including 10 μM of metergoline. The reaction was terminated by rapid filtration through Unifilter GF/B filters on a Tomtec Cell Harvester. Filters were counted in a Packard Top Counter.

cloned 5-HT1A receptors = biological target: T2, cloned 5-HT1A receptors (Homo sapiens, UniProt P08908); experiment: 5-HT1A antagonistic activity: antagonism of 5-HT induced inhibition of forskolin induced cAMP accumulation in transfected HeLa cells (HA7); format: cell-based
T2 construct: expressed in transfected cells
T2 sequence (P08908 1-422): T1 sequence (P08908 1-422)
Procedure: The 5-HT1A antagonistic activity of some of the compounds of the invention has been estimated in vitro at cloned 5-HT1A receptors stably expressed in transfected HeLa cells (HA7). In this test, 5-HT1A antagonistic activity is estimated by measuring the ability of the compounds to antagonize the 5-HT induced inhibition of forskolin induced cAMP accumulation. The assay was performed as a modification of the method described by Pauwels, P. J. et al. Biochem. Pharmacol. 1993, 45, 375.

[1] = cloned human 5-HT1A receptors in HeLa cells (HA7), 15 minutes at 37° C., pH 7.7, read-out: IC50, inhibition of 3H-5-CT binding to human 5-HT1A receptors

Cc1cc(C)c(C#N)c(SCCN2CCN(c3cc(Cl)cc4c3OCCN4)CC2)n1 [Compound 2ai, 2-[2-[4-(6-Chloro-2,3-dihydro-1,4-benzoxazin-8-yl)piperazin-1-yl]ethylsulfanyl]-4,6-dimethylnicotinonitrile] gave an IC50 (human 5-HT1A receptors; [1]) of less than 300 nM.

With Cc1cc(C)c(C#N)c(SCCN2CCN(c3ccc(C#N)c4c3OCCO4)CC2)n1 [Compound 2s, 2-{3-[4-(8-Cyano-2,3-dihydrobenzo[1,4]dioxin-5-yl)piperazin-1-yl]ethylsulfanyl}-4,6-dimethylnicotinonitrile] the IC50 (human 5-HT1A receptors; [1]) was less than 300 nM.

With Cc1nc(SCCN2CCN(c3ccc(C#N)c4c3OCCO4)CC2)c(C#N)c(C)c1Cl [Compound 2u, 5-Chloro-2-{3-[4-(8-cyano-2,3-dihydrobenzo[1,4]dioxin-5-yl)piperazin-1-yl]ethylsulfanyl}-4,6-dimethylnicotinonitrile] the IC50 (human 5-HT1A receptors; [1]) was less than 300 nM.

Cc1cc(C)c(S(=O)(=O)c2ccccc2)c(SCCN2CCN(c3cccc4c3OCCO4)CC2)n1 [Compound 2l, 2-{3-[4-(2,3-Dihydrobenzo[1,4]dioxin-5-yl)piperazin-1-yl]ethylsulfanyl}-4,6-dimethyl-3-phenylsulfonylpyridine] gave an IC50 (human 5-HT1A receptors; [1]) of less than 300 nM.

N#Cc1ccc(N2CCN(CCCSc3ccc(C(F)(F)F)cn3)CC2)c2c1OCCO2 [Compound 1v, 2-{3-[4-(8-Cyano-2,3-dihydrobenzo[1,4]dioxin-5-yl)piperazin-1-yl]propylsulfanyl}-5-trifluoromethylpyridine] showed an IC50 (cloned 5-HT1A receptors) of less than 7000 nM.

Molecule Cc1cc(C(F)(F)F)c(C#N)c(SCCN2CCN(c3cccc4c3OCCO4)CC2)n1 [Compound 1b, 2-{2-[4-(2,3-Dihydrobenzo[1,4]dioxin-5-yl)piperazin-1-yl]ethylsulfanyl}-6-methyl-4-trifluoromethylnicotinonitrile] has an IC50 (human 5-HT1A receptors; [1]) of less than 300 nM and an IC50 (cloned 5-HT1A receptors) of less than 7000 nM.

For N#Cc1cccnc1SCCN1CCN(c2cc(Cl)cc3c2OCC(=O)N3)CC1 [Compound 2z, 2-[2-[4-(6-Chloro-2,3-dihydro-1,4-benzoxazin-3-on-8-yl)piperazin-1-yl]ethylsulfanyl]nicotinonitrile], the IC50 (human 5-HT1A receptors; [1]) was less than 300 nM.

N#Cc1cccnc1SCCN1CCN(c2cc(Cl)cc3c2OCCN3)CC1 [Compound 2ah, 2-[2-[4-(6-Chloro-2,3-dihydro-1,4-benzoxazin-8-yl)piperazin-1-yl]ethylsulfanyl]nicotinonitrile] showed an IC50 (human 5-HT1A receptors; [1]) of less than 300 nM.

Work on Cc1ccc(C#N)c(SCCN2CCN(c3ccc(C#N)c4c3OCCO4)CC2)n1 [Compound 1e, {2-[4-(8-Cyano-2,3-dihydrobenzo[1,4]dioxin-5-yl)piperazin-1-yl]ethylsulfanyl}-6-methylnicotinonitrile] yielded an IC50 (cloned 5-HT1A receptors) of less than 7000 nM.

Work on Cc1cc(C)c(C#N)c(SCCN2CCN(c3cc(Cl)cc4c3OCC(=O)N4)CC2)n1 [Compound 2aa, 2-[2-[4-(6-Chloro-2,3-dihydro-1,4-benzoxazin-3-on-8-yl)piperazin-1-yl]ethylsulfanyl]-4,6-dimethylnicotinonitrile] yielded an IC50 (human 5-HT1A receptors; [1]) of less than 300 nM.

Molecule Cc1cc(Cl)nc(SCCN2CCN(c3cccc4c3OCCO4)CC2)c1C#N [Compound 2o, 6-Chloro-2-{3-[4-(2,3-dihydrobenzo[1,4]dioxin-5-yl)piperazin-1-yl]ethylsulfanyl}-4-methylnicotinonitrile] has an IC50 (human 5-HT1A receptors; [1]) of less than 300 nM.

Cc1cc(N2CCCCC2)nc(SCCN2CCN(c3ccc(C#N)c4c3OCCO4)CC2)c1C#N [Compound 2c, 2-{2-[4-(8-Cyano-2,3-dihydrobenzo[1,4]dioxin-5-yl)piperazin-1-yl]ethylsulfanyl}-4-methyl-6-(piperidin-1-yl)nicotinonitrile] showed an IC50 (human 5-HT1A receptors; [1]) of less than 300 nM.

Work on Cc1cc(Cl)nc(SCCN2CCN(c3cc(Cl)cc4c3OCCN4)CC2)c1C#N [Compound 2aj, 6-Chloro-2-[2-[4-(6-chloro-2,3-dihydro-1,4-benzoxazin-8-yl)piperazin-1-yl]ethylsulfanyl]-4-methylnicotinonitrile] yielded an IC50 (human 5-HT1A receptors; [1]) of less than 300 nM.

N#Cc1cccnc1SCCN1CCN(c2cccc3c2OCCO3)CC1 [Compound 2a] showed an IC50 (human 5-HT1A receptors) of less than 300 nM.
